In paper PMC6316713, “Design, Synthesis, Experimental and Theoretical Characterization of a New Multitarget 2-Thienyl-N-Acylhydrazone Derivative” (Pharmaceuticals, 2018):

How the values were obtained:
PDE4B1 = molecular target: T1, PDE4B1 (Homo sapiens, UniProt Q07343); test: IMAP FP PDE assay, % inhibition at […]; assay type: biochemical; settings: read-out: PDE4B1 ^a
T1 construct: gene PDE4B; isoform PDE4B1, human recombinant

adenosine A2A receptor = molecular target: T2, adenosine A2A receptor (Homo sapiens, UniProt P29274); test: radioligand displacement with [3H]-CGS21680; assay type: binding
T2 construct: gene ADORA2A; human recombinant, expressed in HEK 293 cells
T2 sequence (P29274 whole entry): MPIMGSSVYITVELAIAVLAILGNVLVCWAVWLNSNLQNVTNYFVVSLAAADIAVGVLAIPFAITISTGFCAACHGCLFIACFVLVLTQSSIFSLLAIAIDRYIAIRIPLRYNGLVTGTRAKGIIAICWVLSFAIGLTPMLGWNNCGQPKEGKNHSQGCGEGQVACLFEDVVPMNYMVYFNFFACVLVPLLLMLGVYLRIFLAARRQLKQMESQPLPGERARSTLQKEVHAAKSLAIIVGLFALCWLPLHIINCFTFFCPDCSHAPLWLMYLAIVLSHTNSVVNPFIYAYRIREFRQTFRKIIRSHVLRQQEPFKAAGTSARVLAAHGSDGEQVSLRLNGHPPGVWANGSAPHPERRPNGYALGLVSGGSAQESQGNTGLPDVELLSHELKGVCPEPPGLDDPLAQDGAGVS

PDE4A1A [1] = molecular target: T3, PDE4A1A (Homo sapiens, UniProt P27815); test: IMAP FP PDE assay (FAM-cAMP), concentration-response; assay type: biochemical
T3 construct: gene PDE4A; isoform PDE4A1A, human recombinant
T3 sequence (P27815 265-886 limits assumed): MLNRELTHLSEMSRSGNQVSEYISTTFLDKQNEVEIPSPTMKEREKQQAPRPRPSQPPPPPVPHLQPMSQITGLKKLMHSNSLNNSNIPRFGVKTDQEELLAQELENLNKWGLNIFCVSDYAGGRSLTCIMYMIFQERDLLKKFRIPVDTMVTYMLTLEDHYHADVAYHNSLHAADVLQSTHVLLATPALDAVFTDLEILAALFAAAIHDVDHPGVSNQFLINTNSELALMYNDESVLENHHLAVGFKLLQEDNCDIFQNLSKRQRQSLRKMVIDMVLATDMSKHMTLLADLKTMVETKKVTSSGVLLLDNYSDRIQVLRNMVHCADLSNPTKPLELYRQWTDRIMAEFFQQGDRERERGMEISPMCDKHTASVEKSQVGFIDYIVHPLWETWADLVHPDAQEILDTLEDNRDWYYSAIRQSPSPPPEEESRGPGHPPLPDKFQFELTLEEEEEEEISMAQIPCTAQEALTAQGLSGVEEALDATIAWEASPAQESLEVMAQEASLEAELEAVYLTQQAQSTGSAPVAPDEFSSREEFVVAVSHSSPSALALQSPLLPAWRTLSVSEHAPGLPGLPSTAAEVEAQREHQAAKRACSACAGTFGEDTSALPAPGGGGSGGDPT

PDE4D3 = molecular target: T4, PDE4D3 (Homo sapiens, UniProt Q08499); test: IMAP FP PDE assay, % inhibition at […]; assay type: biochemical
T4 construct: gene PDE4D; isoform PDE4D3, human recombinant
T4 sequence (Q08499 153-809): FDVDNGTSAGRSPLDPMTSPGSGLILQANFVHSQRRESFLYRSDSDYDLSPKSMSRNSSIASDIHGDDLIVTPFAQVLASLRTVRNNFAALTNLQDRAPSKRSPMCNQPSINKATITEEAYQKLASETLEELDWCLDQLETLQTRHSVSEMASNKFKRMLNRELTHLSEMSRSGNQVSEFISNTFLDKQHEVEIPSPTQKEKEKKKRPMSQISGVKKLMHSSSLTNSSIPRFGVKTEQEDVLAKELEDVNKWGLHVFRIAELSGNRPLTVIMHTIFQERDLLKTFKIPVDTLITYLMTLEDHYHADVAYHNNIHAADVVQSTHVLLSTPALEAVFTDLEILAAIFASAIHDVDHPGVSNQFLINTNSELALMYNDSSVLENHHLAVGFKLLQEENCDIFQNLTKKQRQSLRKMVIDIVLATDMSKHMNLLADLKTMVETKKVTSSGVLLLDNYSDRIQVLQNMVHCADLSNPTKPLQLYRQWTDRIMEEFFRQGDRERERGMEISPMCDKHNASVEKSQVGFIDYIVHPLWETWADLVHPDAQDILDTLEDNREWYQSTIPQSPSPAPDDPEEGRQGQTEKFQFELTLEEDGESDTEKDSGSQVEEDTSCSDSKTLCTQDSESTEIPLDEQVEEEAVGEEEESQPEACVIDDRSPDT

PDE4A1A [2] = molecular target: T3, PDE4A1A; test: IMAP FP PDE assay, % inhibition at […]; assay type: biochemical

T1 sequence (Q07343 whole entry, canonical isoform): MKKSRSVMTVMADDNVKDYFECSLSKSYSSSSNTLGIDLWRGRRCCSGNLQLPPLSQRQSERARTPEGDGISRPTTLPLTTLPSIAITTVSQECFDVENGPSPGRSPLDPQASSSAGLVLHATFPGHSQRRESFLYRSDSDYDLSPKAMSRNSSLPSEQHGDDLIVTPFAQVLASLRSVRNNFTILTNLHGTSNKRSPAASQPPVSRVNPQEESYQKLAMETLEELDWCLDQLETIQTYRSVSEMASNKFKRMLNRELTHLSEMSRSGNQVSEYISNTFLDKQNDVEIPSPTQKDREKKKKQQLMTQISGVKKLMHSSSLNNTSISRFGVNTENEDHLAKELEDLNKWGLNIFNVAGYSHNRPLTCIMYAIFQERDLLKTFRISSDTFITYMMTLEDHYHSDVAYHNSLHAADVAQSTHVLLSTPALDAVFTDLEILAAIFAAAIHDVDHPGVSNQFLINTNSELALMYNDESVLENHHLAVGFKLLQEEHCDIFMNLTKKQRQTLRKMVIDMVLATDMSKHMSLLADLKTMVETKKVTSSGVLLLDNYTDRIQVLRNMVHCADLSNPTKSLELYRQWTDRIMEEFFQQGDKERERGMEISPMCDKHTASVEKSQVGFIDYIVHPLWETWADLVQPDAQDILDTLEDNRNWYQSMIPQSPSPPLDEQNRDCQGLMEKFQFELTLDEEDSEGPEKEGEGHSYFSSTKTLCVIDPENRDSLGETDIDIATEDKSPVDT

Row | inhibition at 10 µM (PDE4A1A [2]) [%] | SMILES | inhibition at 10 µM (PDE4B1) [%] | Ki (adenosine A2A receptor) [µM] | IC50 (PDE4A1A [1]) [µM] | inhibition at 10 µM (PDE4D3) [%]
1 | – | COc1ccc(/C=N/N(C)C(=O)c2cccs2)cc1OC [compound 4, LASSBio-1835] | 44 | 1.5 | 1.08 | 40
2 | 53 | COc1ccc(/C=N/NC(=O)c2cccs2)cc1OC [compound 3, LASSBio-1834] | 48 | – | – | –
